Data as given in patent US10889553B2, “Asymmetric triazole benzamide derivatives and the compositions and methods of treatment regarding the same” (NysnoBio Ireland DAC, priority 2017, dated 2021).
“And” between values parts separate entries of the source, which are not always exact repeats. Equal values may be shown once.

Target: T1, Parkin ligase (Homo sapiens, UniProt O60260)
T1 sequence (O60260 1-465): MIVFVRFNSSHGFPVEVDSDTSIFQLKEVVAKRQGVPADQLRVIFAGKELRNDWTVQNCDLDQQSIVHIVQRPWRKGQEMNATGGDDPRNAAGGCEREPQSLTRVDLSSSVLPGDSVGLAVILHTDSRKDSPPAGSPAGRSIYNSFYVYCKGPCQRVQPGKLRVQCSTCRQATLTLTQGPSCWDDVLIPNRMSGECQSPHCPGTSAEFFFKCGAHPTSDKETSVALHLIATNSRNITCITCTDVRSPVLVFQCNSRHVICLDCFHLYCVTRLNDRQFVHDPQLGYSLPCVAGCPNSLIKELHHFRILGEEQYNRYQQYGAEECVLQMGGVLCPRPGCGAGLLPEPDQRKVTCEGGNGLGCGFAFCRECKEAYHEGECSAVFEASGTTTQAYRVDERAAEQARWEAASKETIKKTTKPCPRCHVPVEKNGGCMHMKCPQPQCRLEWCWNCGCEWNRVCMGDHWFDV
Experiment: Activity-Based Probe Assay using Ubiquitin vinyl sulfone probe (TR-FRET)
Format: biochemical
Conditions: heat activated Parkin, HA-Ub-VS probe, activation EC50; read-out: Probe Assay EC50 (μM) [Example 2]
Procedure, shortened: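 Heat-activated His-Parkin (5 min, 58 °C; 40 nM) was preincubated 15 min with compound, then reacted 60 min at 22 °C with 70 nM HA-Ub-VS in 50 mM HEPES pH 8.5, 150 mM NaCl, 0.01% Tween 20, 0.1% BSA. Probe labelling was read by anti-His-Eu/anti-HA-XL665 TR-FRET (665/615 ratio). % activation was normalized to DMSO and 100 nM control activator, then fitted with a four-parameter curve (Bottom=0, Top=100).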

EC50 | Compound
5 µM | Cc1ccc(C(=O)Nc2nc(NC(=O)c3ccc(C)cc3)n(-c3ccccc3)n2)cc1 [Compound 21]
3 µM and 4 µM | Cc1ccccc1C(=O)Nc1nc(NC(=O)c2ccccc2C)n(-c2cccc(Cl)c2)n1 [Compound 36]
3 µM | O=C(Nc1nc(NC(=O)c2ccncc2)n(-c2ccccc2)n1)c1ccncc1 [Compound 33]
10 µM | COc1ccccc1C(=O)Nc1nc(NC(=O)c2ccccc2OC)n(-c2ccccc2)n1 [Compound 23]
3 µM | Cc1ccccc1C(=O)Nc1nc(NC(=O)c2ccccc2C)n(-c2ccc(N3CCCCC3)cc2)n1 [Compound 44]
3 µM | Cc1ccnc(-c2nc(NC(=O)c3ccccc3C)n(-c3ccccc3)n2)c1 [Compound 124]
3 µM | Cc1ccccc1C(=O)Nc1nc(NC(=O)c2ccccc2C)n(-c2ccc(C#N)cc2)n1 [Compound 35]
6 µM | Cc1ccccc1C(=O)Nc1nc(NC(=O)c2ccccc2C)n(-c2ccccc2Cl)n1 [Compound 26]
2 µM | Cc1ccccc1C(=O)Nc1nc(NC(=O)C2CCCN2)nn1-c1ccccc1 (stereo not drawn) [Compound 20]
2 µM | Cc1ccccc1C(=O)Nc1nc(NC(=O)c2cccnc2)nn1-c1ccccc1 [Compound 6]
5 µM | Cc1cccc(-n2nc(NC(=O)c3ccccc3C)nc2NC(=O)c2ccccc2C)c1 [Compound 38]
12 µM | Cc1ccccc1C(=O)Nc1nc(NC(=O)c2ccno2)n(-c2ccccc2)n1 [Compound 7]
2 µM | Cc1ccccc1C(=O)Nc1nc(NCc2ccccc2)nn1-c1ccc(C(F)(F)F)cc1 [Compound 102]
6 µM | Cc1ccccc1C(=O)Nc1nc(NC(=O)c2ccccc2C)n(-c2ccc(F)cc2F)n1 [Compound 46]
4 µM | COc1ccc(C(=O)Nc2nc(NC(=O)c3ccc(OC)cc3)n(-c3ccccc3)n2)cc1 [Compound 37]
2 µM | Cc1ccccc1C(=O)Nc1nc(NC(=O)c2ccncc2)nn1-c1ccccc1 [Compound 34]
1 µM | O=C(Nc1nc(NC(=O)c2cccnc2)n(-c2ccccc2)n1)c1cccnc1 [Compound 40]
4 µM | C#Cc1ccc(C(=O)Nc2nc(NC(=O)c3cccc(N=[N+]=[N-])c3)n(-c3ccccc3)n2)cc1 [Compound 2]
4 µM | Cc1ccc(-n2nc(NC(=O)c3ccccc3C)nc2NC(=O)c2ccccc2C)cc1 [Compound 31]
4 µM | Cc1ccccc1C(=O)Nc1nc(NC(=O)c2ccccc2C)n(-c2cccc(F)c2)n1 [Compound 39]
0.9 µM and 2 µM | Cc1ccccc1C(=O)Nc1nc(NC(=O)c2ccccc2C)n(-c2ccc(C(F)(F)F)cc2)n1 [Compound 25]
2 µM | O=C(Nc1nc(NC(=O)c2ccccn2)n(-c2ccccc2)n1)c1ccccn1 [Compound 41]
3 µM | Cc1ccccc1C(=O)Nc1nc(NC(=O)c2ccccn2)nn1-c1ccccc1 [Compound 16]
10 µM | Cc1ccccc1C(=O)Nc1nc(NC(=O)c2cnccn2)n(-c2ccccc2)n1 [Compound 17]
9 µM | Cc1ccccc1C(=O)Nc1nc(NC(=O)c2ccccc2C)n(-c2ccccc2F)n1 [Compound 32]
3 µM | Cc1ccccc1C(=O)Nc1nc(NC(=O)c2ccccc2C)n(-c2ccc(F)c(F)c2)n1 [Compound 24]

Compound | EC50
Cc1ccccc1C(=O)Nc1nc(NC(=O)c2ccccc2C)n(-c2ccc(OC(F)(F)F)cc2)n1 [Compound 42, N,N′-(1-(4-(trifluoromethoxy)phenyl)-1H-1,2,4-triazole-3,5-diyl)bis(2-methylbenzamide)] | 1 µM and 3 µM
